Literature values in US20260001962A1, “COMBINATION THERAPY METHODS WITH T-CELL ENGAGING MOLECULES FOR TREATMENT OF PROSTATE CANCER” (AMGEN INC., priority 2022, published 2026).
Entries after “also recorded” stand apart in the source; their conditions may differ.

What was measured:
[1] = tested on: mCRPC patients
[2] = tested on: prostate cancer cells; conditions: reported in literature
[3] = tested on: prostate cancer cells; conditions: in vitro; Deegen et al. 2021

## CO[C@H]1C(=O)[C@]2(C)[C@@H](OC)C[C@H]3OC[C@@]3(OC(C)=O)[C@H]2[C@H](OC(=O)c2ccccc2)[C@]2(O)C[C@H](OC(=O)[C@H](O)[C@@H](NC(=O)OC(C)(C)C)c3ccccc3)C(C)=C1C2(C)C [Cabazitaxel]
[1]; mCRPC
  increase in median survival compared with mitoxantrone: 2.4 months

## [223Ra] [Radium-223]
[1]; patients with bone metastases, combined with best standard care, vs 11.3
  survival: 14.9 months

## CNC(=O)c1ccc(N2C(=S)N(c3ccc(C#N)c(C(F)(F)F)c3)C(=O)C2(C)C)cc1F [enzalutamide]
[1]; first line mCRPC setting, vs 31.3
  OS: 35.3 months
[2]
  expression of PSMA on prostate cancer cells: rapidly upregulate expression of PSMA
[3]
  cytotoxicity of prostate cancer cells induced by PSMA-targeted T-cell engager (AMG 160): enhances cytotoxicity of prostate cancer cells; also recorded: enhance AMG 160-mediated cytotoxicity of prostate cancer cells
